Among the data in patent US20230097157A1, “Bicyclic Pyridin-2-one and pyrimidin-4-one Derivatives Useful As a Factor XIa Inhibitors” (Janssen Pharmaceutica NV, priority 2021, published 2023) are IC50 values, retold here.

One experiment addresses Factor XIa (Homo sapiens, UniProt P03951). Description: Factor XIa inhibition assay (FLINT) utilizing a fluorophore-quencher pair peptide substrate 5Fam-[…]-K5Tamra. To be noted: kinetic (KIN) reads, read-out: FXIa KIN Inh IC50. It is filed as biochemical. In short, it runs like this:
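FXIa was preincubated with compound for 30 min at room temperature in Tris pH 7.5 buffer containing CaCl2, BSA and CHAPS, then reacted with 15 μM quenched 5Fam/Tamra peptide substrate. Fluorescence (485/520 nm) was read kinetically every 5 min for 30 min.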

The target of the next experiment is human plasma kallikrein (Homo sapiens, UniProt P03952). Description: Kallikrein inhibition assay (FLINT) utilizing a quenched AMC peptide substrate Z-Gly-Pro-Arg-AMC. The experiment is classed as biochemical. Particulars: kinetic (KIN) reads, read-out: Kallikrein KIN Inh IC50. In short, it runs like this: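 Human plasma kallikrein (2 nM final) pre-incubated 30 min with compound (11-point 3-fold series, top 1 μM, 2% DMSO), then 50 μM Z-Gly-Pro-Arg-AMC added. Buffer 50 mM Tris pH 7.5, 100 mM NaCl, 5 mM CaCl2, BSA, CHAPS. AMC fluorescence (340/440 nm) read kinetically over 30 min at room temperature, IC50 by 4-parameter logistic fit.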
Chain of human plasma kallikrein (P03952 391-638 limits assumed): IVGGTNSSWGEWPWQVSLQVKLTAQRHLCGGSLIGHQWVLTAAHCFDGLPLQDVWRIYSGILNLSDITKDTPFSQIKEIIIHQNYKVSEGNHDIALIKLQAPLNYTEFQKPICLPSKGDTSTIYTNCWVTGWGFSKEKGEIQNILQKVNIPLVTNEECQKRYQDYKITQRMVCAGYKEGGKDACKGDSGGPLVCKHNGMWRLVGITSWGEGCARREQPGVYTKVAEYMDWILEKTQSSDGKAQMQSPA
Chain of human plasma kallikrein (P03952 20-390 partner limits assumed): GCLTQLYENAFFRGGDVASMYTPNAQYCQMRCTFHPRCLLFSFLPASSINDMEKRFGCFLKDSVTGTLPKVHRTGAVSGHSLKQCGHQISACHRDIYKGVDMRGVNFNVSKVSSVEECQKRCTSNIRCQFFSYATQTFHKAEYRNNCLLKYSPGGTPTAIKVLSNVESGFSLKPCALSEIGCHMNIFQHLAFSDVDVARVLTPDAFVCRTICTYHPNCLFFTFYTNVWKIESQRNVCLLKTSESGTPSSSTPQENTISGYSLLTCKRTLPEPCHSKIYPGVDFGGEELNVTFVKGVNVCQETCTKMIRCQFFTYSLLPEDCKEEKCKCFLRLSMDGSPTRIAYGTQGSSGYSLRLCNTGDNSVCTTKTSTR

Where two headings read alike, the source gives them in different places. Bounds are passed on as bounds.

Chain of Factor XIa (P03951 388-625 limits assumed): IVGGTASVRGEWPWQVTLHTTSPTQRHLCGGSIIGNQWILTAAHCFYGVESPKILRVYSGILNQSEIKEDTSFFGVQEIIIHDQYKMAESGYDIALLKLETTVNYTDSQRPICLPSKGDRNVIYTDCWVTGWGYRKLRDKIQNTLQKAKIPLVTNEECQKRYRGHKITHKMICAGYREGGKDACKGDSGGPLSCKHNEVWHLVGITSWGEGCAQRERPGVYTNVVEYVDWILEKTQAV
Chain of Factor XIa (P03951 19-387 partner limits assumed): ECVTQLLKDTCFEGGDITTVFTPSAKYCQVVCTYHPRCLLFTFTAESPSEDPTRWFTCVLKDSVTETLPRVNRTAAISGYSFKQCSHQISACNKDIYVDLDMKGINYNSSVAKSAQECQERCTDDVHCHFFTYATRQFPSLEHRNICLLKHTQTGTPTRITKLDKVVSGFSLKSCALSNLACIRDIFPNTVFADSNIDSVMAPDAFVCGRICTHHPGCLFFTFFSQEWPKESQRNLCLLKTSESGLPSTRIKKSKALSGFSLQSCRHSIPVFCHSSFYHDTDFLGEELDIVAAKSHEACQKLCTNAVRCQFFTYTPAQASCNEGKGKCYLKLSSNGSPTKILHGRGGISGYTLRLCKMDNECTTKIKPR

In general, IC50 refers to the concentration that inhibits the measured activity by half. Regarding `C[C@H]1C[C@@H](c2ncc(-c3ccc(N)nn3)[nH]2)n2c1cc(-c1c(-n3cnnn3)ccc(Cl)c1F)cc2=O` (relative stereo) [Example 10, (1 S*,3S*)-3-(5-(6-Aminopyridazin-3-yl)-1H-imidazol-2-yl)-7-(3-chloro-2-fluoro-6-(1H-tetrazol-1-yl)phenyl)-1-methyl-2,3-dihydroindolizin-5(1H)-one], the values for the IC50 at Factor XIa (values in nM) and on human plasma kallikrein (values in nM) were 18.3 nM and 345 nM, respectively.

With `C[C@H]1C[C@@H](c2ncc(-c3cnc(N)c(F)c3)[nH]2)n2c1cc(-c1c(-n3cnnn3)ccc(Cl)c1F)cc2=O` (relative stereo) [Example 61, (1*S,3*S)-3-(5-(6-Amino-5-fluoropyridin-3-yl)-1H-imidazol-2-yl)-7-(3-chloro-2-fluoro-6-(1H-tetrazol-1-yl)phenyl)-1-methyl-2,3-dihydroindolizin-5(1H)-one], the IC50 on Factor XIa (unit μM) and on human plasma kallikrein (unit μM) was > 10000 nM each time.

As to `Nc1ncc(-c2cnc([C@H]3CC4(CC4)c4cc(-c5c(-n6cnnn6)ccc(Cl)c5F)cc(=O)n43)[nH]2)s1` [Example 17, (R)-3′-(5-(2-Aminothiazol-5-yl)-1H-imidazol-2-yl)-7′-(3-chloro-2-fluoro-6-(1H-tetrazol-1-yl)phenyl)-2′,3′-dihydro-5′H-spiro[cyclopropane-1,1′-indolizin]-5′-one], the values for the IC50 at Factor XIa (values in nM) and at human plasma kallikrein (unit μM) were 890 nM and 9050 nM, respectively.

As for `Cc1nc(N)ccc1-c1cnc([C@@H]2C[C@H](C)c3cc(-c4c(-n5cnnn5)ccc(Cl)c4F)cc(=O)n32)[nH]1` (relative stereo) [Example 51, (1*S,3*S)-3-(5-(6-Amino-2-methylpyridin-3-yl)-1H-imidazol-2-yl)-7-(3-chloro-2-fluoro-6-(1H-tetrazol-1-yl)phenyl)-1-methyl-2,3-dihydroindolizin-5(1H)-one], the IC50 on Factor XIa (values in nM) came to 0.8 nM; at human plasma kallikrein (values in nM), 49.2 nM.

For the compound `COC(=O)Nc1ccc(-c2cnc([C@@H]3C[C@@H](C)c4cc(-c5c(-n6cnnn6)ccc(Cl)c5F)cc(=O)n43)[nH]2)cc1` [Example 65, Methyl(4-(2-((1R,3S)-7-(3-chloro-2-fluoro-6-(1H-tetrazol-1-yl)phenyl)-1-methyl-5-oxo-1,2,3,5-tetrahydroindolizin-3-yl)-1H-imidazol-5-yl)phenyl)carbamate], the IC50 is 0.6 nM at Factor XIa (values in nM) and 1.3 nM on human plasma kallikrein (values in nM).

Consider `C[C@H]1C[C@@H](c2ncc(-c3ncc(N)nc3C(F)F)[nH]2)n2c1nc(-c1c(-n3cnnn3)ccc(Cl)c1F)cc2=O` (relative stereo) [Example 86, (6*S,8*S)-6-(5-(5-Amino-3-(difluoromethyl)pyrazin-2-yl)-1H-imidazol-2-yl)-2-(3-chloro-2-fluoro-6-(1H-tetrazol-1-yl)phenyl)-8-methyl-7,8-dihydropyrrolo[1,2-a]pyrimidin-4(6H)-one], for which the IC50 was > 100 nM at Factor XIa (values in nM) and 819 nM on human plasma kallikrein (values in nM).

Turning to `COC(=O)Nc1ccc(-c2cnc([C@@H]3C[C@H](C)c4cc(-c5c(-n6cnnn6)ccc(Cl)c5F)cc(=O)n43)[nH]2)cc1` (relative stereo) [Example 64, Methyl(4-(2-((1*S,3*S)-7-(3-chloro-2-fluoro-6-(1H-tetrazol-1-yl)phenyl)-1-methyl-5-oxo-1,2,3,5-tetrahydroindolizin-3-yl)-1H-imidazol-5-yl)phenyl)carbamate], the IC50 was determined as 1700 nM on Factor XIa (unit μM) and 5400 nM on human plasma kallikrein (unit μM).

As to `C[C@@H]1C[C@@H](c2ncc(-c3ccnc(C(F)(F)F)c3)[nH]2)n2c1nc(-c1c(-n3cnnn3)ccc(Cl)c1F)cc2=O` (relative stereo) [Example 147, (6S*,8R*)-2-(3-Chloro-2-fluoro-6-(1H-tetrazol-1-yl)phenyl)-8-methyl-6-(5-(2-(trifluoromethyl)pyridin-4-yl)-1H-imidazol-2-yl)-7,8-dihydropyrrolo[1,2-a]pyrimidin-4(6H)-one], the half-inhibitory concentration (IC50) at Factor XIa (unit μM) and on human plasma kallikrein (unit μM) was > 10000 nM each time.
